From patent US20040034045A1, “Inhibitors of thrombin induced platelet aggregation” (Parker Hughes Institute, priority 2000, published 2004) come the findings set out here.

Data set [1] concerns thrombin-induced platelet aggregation. In words: Thrombin-induced platelet aggregation (platelet aggregometer). Format: cell-based, human. The procedure:
Platelet-rich plasma (PRP) was purchased from the Memorial Blood Bank (Minneapolis, Minn.) and used according to the guidelines of the Parker Hughes Institute Human Subjects Committee. The PRP samples were treated with varying concentrations of WHI-P131 for 20 minutes at 37° C. Control PRP samples were treated with vehicle alone. The treated PRP samples were diluted 1:4 with sterile normal saline and platelets were stimulated with thrombin (0.1 U/mL, Chronolog Inc., Philadelphia, Pa.) under stirred conditions. Platelet aggregation was monitored in a platelet aggregometer (Model 560 Dual Chamber Instrument, Chronolog Inc., Philadelphia, Pa.) for 5 minutes. The IC50 values for WHI-P131-mediated inhibition of agonist-induced platelet aggregation were calculated by non-linear regression analysis using Graphpad Prism software version 2.0 (Graphpad Software, Inc., San Diego, Calif.).

In data set [2] the test system is collagen-induced platelet aggregation. Briefly: Collagen-induced platelet aggregation. Format: cell-based, human. The following applies: FIG. 7D.
In data set [3] the test system is platelets. Briefly: Serotonin release from thrombin-stimulated platelets. It counts as cell-based, human. Conditions: treated, N=4. The procedure:
Release of serotonin from thrombin (0.1 U/mL)-stimulated platelets was measured using a serotonin detection kit (Immunotech, Marseille, France) according to the manufacturer's specifications. Sonnicated platelets were used for measurement of the total serotonin content of platelets.

The test system of data set [4] is mice. In words: Tail bleeding time in mice. It counts as in vivo. The protocol: Mice (4-6 week old males, International Cancer Research (IRC)) were treated intravenously with 200 μL vehicle (PBS supplemented with 10% DMSO) or varying doses of WHI-P131 in […] vehicle. To evalulate bleeding and clotting times, treated mice were placed in a tube holder and tail bleeding was performed with a 2 mm cut from the protruding tail tip; the tail was placed vertically into 10 mL normal saline in a 37° C. water bath and bleeding times determined as previously described (Teng, et.al., 1997 Eur J Pharmacol 320(2-3), 161-6).

The subject of data set [5] is thromboplastin-induced thromboembolism. Briefly: Thromboplastin-induced thromboembolism model. It counts as in vivo. The procedure:
Mice (4-6 week old males, International Cancer Research (IRC)) were treated […] with 200 μL of vehicle (PBS supplemented with 10% DMSO), varying doses of WH-P131 in 200 μL of vehicle (administered intraperitoneally (i.p.) 30 minutes prior to the thromboplastin challenge). The mice were challenged with 25 mg/kg thromboplastin (Sigma, St. Louis, Mo.) via a bolus intravenous injection into the tail vein as previously described (Sato, et.al., 1998 Jpn J. Pharmacol 78(2), 191-7).
At the time of thromboembolism-related death after the thromboplastin injection or elective sacrifice at 48 hours using ketamine/xylazine, all mice were perfused with PBS followed by 4% phosphate buffered formalin. PBS and formalin were pumped through the left ventricle of the heart and allowed to exit through a 3 mm incision through the anterior wall of the right ventricle. During necropsy, several selected tissues (brain, heart, liver, lungs) were harvested, fixed in 10% neutral buffered formalin, dehydrated, and embedded in paraffin by routine methods for histopathologic examination. Glass slides with affixed 6 micron tissue sections were prepared and stained with hemotoxylin and eosin (H&E) or Masson's trichrome.

Data set [6] relates to mice. Briefly: Systemic toxicity in mice. Format: in vivo.
The subject of data set [7] is monkeys. Briefly: Systemic toxicity in monkeys. It counts as in vivo. The following applies: dose levels 1 mg/kg to 100 mg/kg.
Data set [8] can be described thus: Plasma concentration in mice. Format: in vivo.
In data set [9] the target is T1, JAK3 (Homo sapiens, UniProt P52333).
T1 sequence (P52333 1-1124): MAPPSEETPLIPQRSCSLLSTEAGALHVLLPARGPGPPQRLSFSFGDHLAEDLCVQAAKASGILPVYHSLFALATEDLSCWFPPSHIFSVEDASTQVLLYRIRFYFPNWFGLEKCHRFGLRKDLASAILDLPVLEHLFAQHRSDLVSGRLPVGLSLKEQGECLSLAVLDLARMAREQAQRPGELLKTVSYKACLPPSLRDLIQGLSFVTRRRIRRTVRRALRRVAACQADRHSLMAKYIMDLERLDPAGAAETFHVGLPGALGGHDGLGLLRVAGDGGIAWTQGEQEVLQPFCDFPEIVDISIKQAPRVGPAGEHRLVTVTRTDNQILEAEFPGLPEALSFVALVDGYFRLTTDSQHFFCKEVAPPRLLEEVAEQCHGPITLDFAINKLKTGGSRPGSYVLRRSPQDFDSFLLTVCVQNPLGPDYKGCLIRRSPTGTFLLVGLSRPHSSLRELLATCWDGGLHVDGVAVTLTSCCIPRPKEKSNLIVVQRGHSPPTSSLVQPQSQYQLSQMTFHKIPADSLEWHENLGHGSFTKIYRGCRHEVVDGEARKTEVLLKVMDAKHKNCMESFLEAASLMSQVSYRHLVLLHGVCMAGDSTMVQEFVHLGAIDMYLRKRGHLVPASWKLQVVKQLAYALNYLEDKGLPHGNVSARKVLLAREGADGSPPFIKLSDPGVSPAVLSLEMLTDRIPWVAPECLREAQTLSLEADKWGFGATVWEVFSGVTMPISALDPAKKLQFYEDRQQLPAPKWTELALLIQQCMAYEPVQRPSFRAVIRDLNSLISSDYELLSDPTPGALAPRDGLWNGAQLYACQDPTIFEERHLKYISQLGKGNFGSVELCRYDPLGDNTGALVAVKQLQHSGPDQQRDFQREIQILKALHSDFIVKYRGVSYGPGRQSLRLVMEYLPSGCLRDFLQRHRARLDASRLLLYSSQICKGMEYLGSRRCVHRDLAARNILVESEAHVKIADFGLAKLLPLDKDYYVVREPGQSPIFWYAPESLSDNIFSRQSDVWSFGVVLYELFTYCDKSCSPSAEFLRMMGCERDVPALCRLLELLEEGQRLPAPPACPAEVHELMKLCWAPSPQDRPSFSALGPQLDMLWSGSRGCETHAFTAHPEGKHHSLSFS
Briefly: JAK3 inhibition (statement, no method).

With `COc1cc2ncnc(Nc3ccc(O)cc3)c2cc1OC` [WHI-P131, 4-(4′-Hydroxyphenyl)-amino-6,7-dimethoxyquinazoline], the half-maximal inhibitory concentration (IC50) in data set [1] (Platelet, human platelets, pretreatment 30 minutes, thrombin 0.1 U/mL, average, read-out: IC50, inhibition of thrombin-induced platelet aggregation) worked out at 1500 nM. In addition, the “effect on collagen-induced platelet aggregation” value in data set [2] is given as “does not inhibit”. For the same molecule, the “serotonin in platelet supernatants” value in data set [3] was 313 ± 19 nM. In addition, the “average tail bleeding time” value was 9.4 ± 0.6 min in [4] (20 mg/kg, N=5); over 10 min in data set [4] (40 mg/kg, N=10); over 10 min in data set [4] (80 mg/kg, N=10). In data set [5] (mice, 25 mg/kg thromboplastin challenge), this molecule came in with an event-free survival outcome of 30±15%. The “drug-related toxic lesions in organs (histopathology)” value in data set [5] (pretreated, thromboplastin-challenged mice) is “No drug-related toxic lesions were detected”. The “survival and health status without thromboplastin challenge” value in [6] (20 control mice, 80 mg/kg, 48 hour observation) is listed as “survived beyond the 48 hour observation period without any evidence of impaired health status or bleeding”. Besides, the “toxicity on systemic administration” value was “not toxic” in [6] (mice, dose levels 1 mg/kg to 100 mg/kg) and “not toxic” in data set [7]. For the same molecule, the “plasma concentrations achieved without toxicity” value in [8] was at least 10 µM.

On to `COc1cc2ncnc(Nc3ccccc3)c2cc1OC` [WHI-P258], for which the “effect on thrombin-induced aggregation of platelets” value in [1] (even at 100 μM) is recorded as “did not affect”. Besides, the “effect on thrombin induced platelet aggregation (aggregation curves)” value in data set [1] (thrombin 0.1 U/mL, FIG. 7B/7C) is reported as “had no effect”. Besides, the JAK3 inhibition result in data set [9] is “does not inhibit”.
